Among the data in ChEMBL document CHEMBL3507680, “University of Dundee, Gates Library screen for HepG2 cell viability” are cytotoxicity values, retold here.

The nature of the data set: Human HepG2 cell viability assay in 384 well format. Format: toxicity, cell-based. Also on record: dose 125 nL, time 70.5 hour; cytotoxicity at 70.5 h: concentration not given beside the values. As to conditions: HepG2 cells, read-out: Inhibition.
Regarding `CCc1nc(N2CCC3(CC2)[C@H](O)C[C@@H]3O)ncc1C`, the cytotoxicity at 70.5 h is -5.93%.

For the compound `N#CCCN(CC1CC1)Cn1cc(Cl)cn1`, the cytotoxicity at 70.5 h came to 34.6%.

Take `CO[C@@H]1CC[C@H]2[C@H]1OCCN2C(=O)C1CCOCC1`: the cytotoxicity at 70.5 h is -15%.

As for `O=C(NCC1CC1)C1CCC2(CCN(C(=O)c3ccccn3)CC2)O1` (stereo not drawn), the cytotoxicity at 70.5 h was 20.3%.

In the case of `CC(C)c1noc(CCCC(=O)N2CCN(S(C)(=O)=O)CC2)n1`, the cytotoxicity at 70.5 h was -5.72%.

Take `CCn1ncc2c1CCCC2NCc1ccc(OC)c(C)c1` (stereo not drawn): the cytotoxicity at 70.5 h was 33.6%.

With `CCC(C)(O)CNC(=O)Nc1ccc(C)cc1Br` (stereo not drawn), the cytotoxicity at 70.5 h is -5.82%.

As to `CC(C)c1cc(NC(=O)CN2CCn3c(nnc3C3CC3)C2)on1`, the cytotoxicity at 70.5 h turned out to be 19.6%.

Turning to `CC(=O)N1N=C(c2ccccc2)OC1C(=O)NCCc1ccc(O)cc1` (stereo not drawn), the cytotoxicity at 70.5 h was -1.25%.

Turning to `CCn1c(C)cc(C(=O)N2CCCC(C(=O)c3nccn3C)C2)c1C` (stereo not drawn), the cytotoxicity at 70.5 h stood at 19.6%.

As to `COc1ccccc1-c1ncc(CN2C[C@H](O)[C@@H](N3CCCC3)C2)s1`, the cytotoxicity at 70.5 h is -14.6%.

Take `CCc1nc2n(n1)CC(NCc1nc3ccccc3o1)CC2` (stereo not drawn): the cytotoxicity at 70.5 h is -8.97%.

For the compound `Cc1cc(CN2Cc3ccccc3CC2c2nnc(C)o2)on1` (stereo not drawn), the cytotoxicity at 70.5 h is -6.94%.

Turning to `Cn1ccnc1CN(CCO)C(=O)c1cnc2ccccc2c1`, the cytotoxicity at 70.5 h is 0.182%.

`CN(C)c1ccc(C(=O)N2CCN(Cc3cscn3)CC2)cn1`: the cytotoxicity at 70.5 h was -6.24%.

With `CC(C)C(=O)NC1COC2(CCN(C(=O)c3ccc[nH]3)CC2)C1` (stereo not drawn), the cytotoxicity at 70.5 h is -7.92%.

Take `CN(CCc1ccncc1)c1cnn(C)c(=O)c1Br`: the cytotoxicity at 70.5 h was -24.9%.

For the compound `COc1ncccc1C(=O)N1CCc2c(ncnc2N2CCOCC2)C1`, the cytotoxicity at 70.5 h is -3.85%.

Turning to `Cc1nc(C2(O)CCCNCC2)sc1CCOc1ccc(Cl)cc1` (stereo not drawn), the cytotoxicity at 70.5 h came to 31.6%.

In the case of `Oc1ccc(Cl)cc1CNCc1ccccc1Cl`, the cytotoxicity at 70.5 h was -8.63%.

For `CCC(C)n1cnc(S(=O)(=O)N(Cc2cccnc2)C(C)C)c1` (stereo not drawn), the cytotoxicity at 70.5 h was found to be 3.97%.

Turning to `O=C(NCCC1=CCCCC1)C1CCN(c2ccc3nncn3n2)CC1`, the cytotoxicity at 70.5 h is 3.11%.

As to `C[S+]([O-])CCNC(=O)N1CCN(c2cc(F)ccc2F)CC1` (stereo not drawn), the cytotoxicity at 70.5 h amounted to 13%.

`CC(C)c1noc(CCC(=O)NC(C)c2ccccn2)n1` (stereo not drawn): the cytotoxicity at 70.5 h is -1.62%.

With `COc1ccc(CC(=O)N2CC[C@@H]3NC(=O)CC[C@@H]32)cc1`, the cytotoxicity at 70.5 h was 3.62%.

`CC(C)c1ncc(Cl)c(C(=O)N2CCN(C3CCCC3)CC2)n1`: the cytotoxicity at 70.5 h was -3.22%.

For the compound `CN(C)C(=O)C1(CCCc2ccncc2)CCCN1` (stereo not drawn), the cytotoxicity at 70.5 h amounted to 9.48%.

In the case of `COc1ccccc1OC1CCN(C(=O)CCCn2ccnc2)CC1`, the cytotoxicity at 70.5 h was -6.19%.

With `CCc1nnc2n1CCN(C(=O)c1cc3ccc(F)cc3nc1C)C2`, the cytotoxicity at 70.5 h is -3.67%.

For `COc1cc(N2CCC3(CCN(Cc4csc(C)n4)C3)CC2)ncn1`, the cytotoxicity at 70.5 h is -5.2%.

For the compound `CN(C(=O)C1CCN(Cc2cnc3ccccn23)CC1)c1ccccc1`, the cytotoxicity at 70.5 h is -7.69%.

Take `O=C(c1ccc(OCC2CC2)nc1)N1CCCC(n2cncn2)C1` (stereo not drawn): the cytotoxicity at 70.5 h was -12.6%.

Consider `Cc1n[nH]c(C)c1NC(=O)CN1CCc2c(nc(C(C)C)n2C)C1`, for which the cytotoxicity at 70.5 h is -16.4%.

With `c1cnc(Nc2cc(CCC3CCCNC3)ccn2)cn1` (stereo not drawn), the cytotoxicity at 70.5 h is -4.31%.

In the case of `CSCCC(=O)NCc1cc2n(n1)CCN(C(=O)N(C)C)C2`, the cytotoxicity at 70.5 h is -8.07%.

As to `COc1ccc2c(c1)CCCN2C(=O)CNCC1CN(C)CCO1` (stereo not drawn), the cytotoxicity at 70.5 h worked out at 12.1%.

In the case of `Cc1cc(NC(=O)COC(=O)c2ccc(F)cc2Br)n(C)n1`, the cytotoxicity at 70.5 h is -12.3%.

Turning to `O=C(O)CCc1cccc(C2CCCN2Cc2cccc(Cl)c2)n1` (stereo not drawn), the cytotoxicity at 70.5 h was -0.284%.

For the compound `O=C1CC(NS(=O)(=O)NCc2ccccc2)CN1c1ccccc1Cl` (stereo not drawn), the cytotoxicity at 70.5 h stood at 5.29%.

In the case of `CCn1cc(CN2CCCC2c2nc(-c3ccccc3)no2)cc1C#N` (stereo not drawn), the cytotoxicity at 70.5 h came to 2.37%.

In the case of `O=C(C1CCOCC1)N1CC[C@H]2[C@H]1CCN2c1nncs1`, the cytotoxicity at 70.5 h was -0.658%.

Regarding `Cn1cc(C2CCCN2C(=O)Cc2n[nH]c3ccccc23)cn1` (stereo not drawn), the cytotoxicity at 70.5 h was 40.1%.

On to `CN1CCN(C(=O)NC2CC2)Cc2cccnc21`, for which the cytotoxicity at 70.5 h came out at 0.459%.

In the case of `O=C(NCCc1c[nH]cn1)c1ccc(S(=O)(=O)NC2CCCC2)cc1`, the cytotoxicity at 70.5 h was -1.62%.

`CSc1ccc(-c2nc(CN3CCC(NC(C)=O)CC3)c(C)o2)cc1`: the cytotoxicity at 70.5 h is -7.12%.

In the case of `Cc1ccc(NC(=O)N2CCOC(C(N)=O)C2)cc1C(F)(F)F` (stereo not drawn), the cytotoxicity at 70.5 h is -4.03%.

`Cc1nc(COc2nc(C(C)C)no2)cs1`: the cytotoxicity at 70.5 h is -5.35%.

Take `NC(=O)c1cnc(NCC(=O)NCc2ccccc2)c(Cl)c1`: the cytotoxicity at 70.5 h is -4.1%.

For `COc1cccc(N2CC3(CCN(c4ccc(C)nn4)C3)CC2=O)c1` (stereo not drawn), the cytotoxicity at 70.5 h is -2.78%.

Take `CCC(=O)N1CCCC1C(=O)N1CCC(Cc2ccc(F)cc2)CC1` (stereo not drawn): the cytotoxicity at 70.5 h was -9.21%.

Consider `Cn1cc(C(=O)NCc2ccc(N3CCNC(=O)C3)c(F)c2)cn1`, for which the cytotoxicity at 70.5 h was -4.04%.

As for `CCc1cnc(CN2CCCC(c3cc(C)[nH]n3)C2)o1` (stereo not drawn), the cytotoxicity at 70.5 h is -8.59%.

Consider `CCc1cnc(C)nc1NC1CC(=O)N(CC2CCCCC2)C1` (stereo not drawn), for which the cytotoxicity at 70.5 h is -8.14%.

`c1cncc(OC[C@@H]2CCC[C@@]23CNCCO3)c1`: the cytotoxicity at 70.5 h came to 14.3%.

With `CC(C)CCN(C)C(=O)c1cc(CN2CCC(O)CC2)on1`, the cytotoxicity at 70.5 h is -0.516%.

For the compound `COCC1CN(C(=O)c2ccoc2)Cc2cnn(CC3CCOCC3)c21` (stereo not drawn), the cytotoxicity at 70.5 h was -9.06%.

For the compound `COc1ccc(CN(C)C(=O)Cc2c(C)nn(C)c2C)cc1F`, the cytotoxicity at 70.5 h came to 2.24%.

Turning to `CCC(CNC(=O)NC1CCN(C)CC1)Oc1ccccc1Cl` (stereo not drawn), the cytotoxicity at 70.5 h turned out to be 30.5%.

As for `CN(C)CCN1CCCC12CCN(Cc1nccn1C)CC2`, the cytotoxicity at 70.5 h was -0.128%.

Regarding `CCc1nn(C)c(CC)c1CNC(=O)Nc1cccc2c1CCN2C`, the cytotoxicity at 70.5 h was -0.865%.

With `CCN(CC(=O)Nc1cc(Cl)ccc1C)C(=O)c1ccncc1`, the cytotoxicity at 70.5 h is -1.81%.

Consider `Cn1cc(N2C(=O)CC[C@@H]3[C@H]2CCN3CCc2ccccc2)cn1`, for which the cytotoxicity at 70.5 h is 16.8%.

Turning to `CN(Cc1nnc(C2CC2)o1)CC1CCCN1c1cccnn1` (stereo not drawn), the cytotoxicity at 70.5 h was -9.18%.

With `CCC(CC)N1CCC(c2[nH]ncc2S(C)(=O)=O)C1` (stereo not drawn), the cytotoxicity at 70.5 h was -5.29%.

On to `Cc1c(C(=O)N2CCCSCC2)nnn1-c1ccccc1Cl`, for which the cytotoxicity at 70.5 h is -8.81%.

On to `O=C(Cn1ccc2ccc(Br)cc21)NC[C@@H]1CCCN2CCCC[C@H]12`, for which the cytotoxicity at 70.5 h was 41.4%.

Regarding `Cc1ccc(CN2CC[C@@H]3OCCN(S(C)(=O)=O)[C@H]3CC2)s1`, the cytotoxicity at 70.5 h is -3.31%.

Regarding `COc1ccc(C2CC(=O)c3c(O)cc(O)cc3O2)cc1O` (stereo not drawn), the cytotoxicity at 70.5 h was -9.21%.

Regarding `O=C(c1cncc(N2CCC3(CCNCC3)CC2)n1)N1CCCC1`, the cytotoxicity at 70.5 h was determined as 12.4%.

`Cc1cc(=O)n2c(n1)SCC2CC(=O)NCc1cc(-c2ccco2)on1` (stereo not drawn): the cytotoxicity at 70.5 h was -9.17%.

With `CCSCCN1CCCN(S(C)(=O)=O)CC1`, the cytotoxicity at 70.5 h is -2.21%.

With `Cn1c(N)c2c(=O)n(C)c(-c3ccccc3)cc2c(C#N)c1=O`, the cytotoxicity at 70.5 h was -10.5%.

With `COc1ccnc(N2CCN(C(=O)c3cc(C4CC4)[nH]n3)CC2)n1`, the cytotoxicity at 70.5 h is -5.93%.

On to `CCN1CCN(C(=O)c2cc(-c3cccn3C)n[nH]2)[C@H]2CS(=O)(=O)C[C@H]21`, for which the cytotoxicity at 70.5 h is -18.3%.

Regarding `N#CCc1ccc(NC(=O)Cn2cc(I)cn2)cc1`, the cytotoxicity at 70.5 h is -9.71%.

`c1cnc(NCc2nnn3c2CN(Cc2ccco2)CCC3)nc1`: the cytotoxicity at 70.5 h was -109%.

Turning to `Cn1cc(N2CCC3(CCN(C(=O)c4cccn4C)C3)C2=O)cn1` (stereo not drawn), the cytotoxicity at 70.5 h was -6.34%.

Take `COCCNC(=O)c1ccc2c(=O)n3c(nc2c1)CCN(C)CC3`: the cytotoxicity at 70.5 h was found to be 7.41%.

In the case of `Fc1ccc(CN2C[C@@H](OCc3ccccn3)[C@H]3COC[C@H]32)cc1`, the cytotoxicity at 70.5 h is -1.1%.

Consider `CN(CC(=O)N1CCC(OCc2cccnc2)CC1)c1ccccc1`, for which the cytotoxicity at 70.5 h is -17.1%.

With `CCS(=O)(=O)N1CCC2(CCN(Cc3cccc(OC)c3)CC2)CC1`, the cytotoxicity at 70.5 h was -2.06%.

Take `COc1ccc(C(C)N2CCC(NS(C)(=O)=O)CC2)cc1Cl` (stereo not drawn): the cytotoxicity at 70.5 h was 10.5%.

For `O=C(Cc1c[nH]c(=O)[nH]c1=O)N1CCCCC1CCc1cccc(O)c1` (stereo not drawn), the cytotoxicity at 70.5 h is -5.29%.

For the compound `COCCN1CCN(Cc2cccc(C(=O)N(C)C)c2)CC1C` (stereo not drawn), the cytotoxicity at 70.5 h was 14.5%.

As for `N#Cc1cccc(C(=O)N2C[C@H]3CC[C@@H]2CN(C(=O)C2CCC2)C3)c1`, the cytotoxicity at 70.5 h was -4.08%.

Take `CCC(CN1CCOCC1)n1cncc1-c1ccc2c(c1)CCCN2C` (stereo not drawn): the cytotoxicity at 70.5 h is -6.78%.

For `COCC(=O)Nc1ccccc1-c1ccc(=O)n(C)n1`, the cytotoxicity at 70.5 h is -4.15%.

Consider `CCn1nccc1CNC(=O)Cn1cc2c(n1)c(C)nn2C(C)C`, for which the cytotoxicity at 70.5 h was -9.07%.

`Cc1ccnn1CCN1CCCC2(CCC(=O)N(C3CCCC3)C2)C1` (stereo not drawn): the cytotoxicity at 70.5 h was -21%.

In the case of `CCN(C)C[C@@H]1CN(S(=O)(=O)c2ccc(OC)cc2)C[C@@H]1CO`, the cytotoxicity at 70.5 h amounted to 10.4%.

With `COc1ccccc1OCC(=O)n1ncc(C#N)c1N`, the cytotoxicity at 70.5 h is 9.32%.

On to `CCOc1ccccc1-c1noc(CN2CCCC(O)C2)n1` (stereo not drawn), for which the cytotoxicity at 70.5 h is -11.1%.

Regarding `Cc1cccn2cc(CC(=O)N3CCCC(n4cncn4)C3)nc12` (stereo not drawn), the cytotoxicity at 70.5 h is -3.85%.

Consider `Cc1ccc(-c2nn(-c3cccc(F)c3)cc2CN(CCO)CCO)o1`, for which the cytotoxicity at 70.5 h is -17.7%.

As for `COc1cc(CN2CCCC2)ccc1OC12CCCN(CC1)C2` (stereo not drawn), the cytotoxicity at 70.5 h was -18.9%.

`N#Cc1ccc(NCc2cc3n(n2)CCCN(C(=O)C2CCC2)C3)nc1`: the cytotoxicity at 70.5 h was -8.13%.

`CCN(CC)C(=O)CSc1ccc(C(F)(F)F)cn1`: the cytotoxicity at 70.5 h is -6.72%.

Turning to `Cc1ccc2nc(CN(Cc3ccc(C#N)cc3)C(C)C)cc(=O)n2c1`, the cytotoxicity at 70.5 h amounted to 20.2%.
